Assay results from ChEMBL document CHEMBL1275577, “Study of the in vitro activities of rifaximin and comparator agents against 536 anaerobic intestinal bacteria from the perspective of potential utility in pathology involving bowel flora” (Antimicrob Agents Chemother, 2009).
≈ marks a conversion by molar mass, not a printed value.

Key:
Assay type in all cases: functional
Clostridium butyricum = experiment: Antimicrobial activity against Clostridium butyricum by Wadsworth agar dilution method
[1] = system: Coprobacillus cateniformis; experiment: Antimicrobial activity against Coprobacillus cateniformis by Wadsworth agar dilution method
[2] = system: Pseudoramibacter alactolyticus; experiment: Antimicrobial activity against Eubacterium alactolyticum by Wadsworth agar dilution method
[3] = system: Ruminococcus flavefaciens; experiment: Antimicrobial activity against Ruminococcus flavefaciens by Wadsworth agar dilution method
[4] = system: Clostridium paraputrificum; experiment: Antimicrobial activity against Clostridium paraputrificum by Wadsworth agar dilution method
Schaalia meyeri = experiment: Antimicrobial activity against Actinomyces meyeri by Wadsworth agar dilution method
Ruminococcus gnavus = experiment: Antimicrobial activity against Ruminococcus gnavus by Wadsworth agar dilution method; details: Mediterraneibacter gnavus
Bifidobacterium dentium = experiment: Antimicrobial activity against Bifidobacterium dentium by Wadsworth agar dilution method
Fusobacterium mortiferum = experiment: Antimicrobial activity against Clostridium rectum by Wadsworth agar dilution method
[5] = system: Paraclostridium bifermentans; experiment: Antimicrobial activity against Clostridium bifermentans by Wadsworth agar dilution method
[6] = system: Bifidobacterium adolescentis; experiment: Antimicrobial activity against Bifidobacterium adolescentis by Wadsworth agar dilution method
Hoylesella loescheii = experiment: Antimicrobial activity against Prevotella loescheii by Wadsworth agar dilution method
Bifidobacterium breve = experiment: Antimicrobial activity against Bifidobacterium breve by Wadsworth agar dilution method
Porphyromonas = experiment: Antimicrobial activity against Porphyromonas sp. by Wadsworth agar dilution method
Clostridium cadaveris = experiment: Antimicrobial activity against Clostridium cadaveris by Wadsworth agar dilution method
Flavonifractor plautii = experiment: Antimicrobial activity against Clostridium orbiscindens by Wadsworth agar dilution method
Parvimonas micra = experiment: Antimicrobial activity against Peptostreptococcus micros by Wadsworth agar dilution method
Bacteroides stercoris = experiment: Antimicrobial activity against Bacteroides stercoris by Wadsworth agar dilution method
Ruminococcus obeum = experiment: Antimicrobial activity against Ruminococcus obeum by Wadsworth agar dilution method; details: Blautia obeum
Clostridium disporicum = experiment: Antimicrobial activity against Clostridium disporicum by Wadsworth agar dilution method
Fusobacterium nucleatum = experiment: Antimicrobial activity against Fusobacterium nucleatum by Wadsworth agar dilution method
[7] = system: Parabacteroides goldsteinii; experiment: Antimicrobial activity against Parabacteroides goldsteinii by Wadsworth agar dilution method
Desulfovibrio vulgaris = experiment: Antimicrobial activity against Desulfovibrio vulgaris by Wadsworth agar dilution method; details: Nitratidesulfovibrio vulgaris
Lactobacillus sp. = experiment: Antimicrobial activity against Lactobacillus sp. by Wadsworth agar dilution method
Eubacterium cylindroides = experiment: Antimicrobial activity against Eubacterium cylindroides by Wadsworth agar dilution method; details: Faecalitalea cylindroides
[8] = system: Desulfovibrio desulfuricans; experiment: Antimicrobial activity against Desulfovibrio desulfuricans by Wadsworth agar dilution method
Prevotella bivia = experiment: Antimicrobial activity against Prevotella bivia by Wadsworth agar dilution method
[9] = system: Lacticaseibacillus rhamnosus; experiment: Antimicrobial activity against Lactobacillus rhamnosus by Wadsworth agar dilution method
Clostridium nexile = experiment: Antimicrobial activity against Clostridium nexile by Wadsworth agar dilution method; details: Faecalimonas nexilis
Thomasclavelia ramosa = experiment: Antimicrobial activity against Clostridium ramosum by Wadsworth agar dilution method
Finegoldia magna = experiment: Antimicrobial activity against Finegoldia magna by Wadsworth agar dilution method
Eubacterium limosum = experiment: Antimicrobial activity against Eubacterium limosum by Wadsworth agar dilution method
Bacteroides fragilis = experiment: Antimicrobial activity against Bacteroides fragilis by Wadsworth agar dilution method
Collinsella aerofaciens = experiment: Antimicrobial activity against Colinsella aerofaciens by Wadsworth agar dilution method
[10] = system: Clostridium lactatifermentans; experiment: Antimicrobial activity against Clostridium lactatifermentans by Wadsworth agar dilution method; details: Anaerotignum lactatifermentans
Ruminococcus lactaris = experiment: Antimicrobial activity against Ruminococcus lactaris by Wadsworth agar dilution method
Prevotella corporis = experiment: Antimicrobial activity against Prevotella corporis by Wadsworth agar dilution method
Blautia luti = experiment: Antimicrobial activity against Ruminococcus luti by Wadsworth agar dilution method
Bacteroides uniformis = experiment: Antimicrobial activity against Bacteroides uniformis by Wadsworth agar dilution method
Clostridium bartlettii = experiment: Antimicrobial activity against Clostridium bartlettii by Wadsworth agar dilution method; details: Intestinibacter bartlettii
Clostridium symbiosum = experiment: Antimicrobial activity against Clostridium symbiosum by Wadsworth agar dilution method
[11] = system: Lactobacillus catenaformis; experiment: Antimicrobial activity against Lactobacillus catenaformis by Wadsworth agar dilution method; details: Eggerthia catenaformis
Clostridium fallax = experiment: Antimicrobial activity against Clostridium fallax by Wadsworth agar dilution method
Clostridium subterminale = experiment: Antimicrobial activity against Clostridium subterminale by Wadsworth agar dilution method
Clostridium hathewayi = experiment: Antimicrobial activity against Clostridium hathewayi by Wadsworth agar dilution method; details: Hungatella hathewayi
Prevotella intermedia = experiment: Antimicrobial activity against Prevotella intermedia by Wadsworth agar dilution method
[12] = system: Desulfovibrio fairfieldensis; experiment: Antimicrobial activity against Desulfovibrio fairfieldensis by Wadsworth agar dilution method

SMILES: CC(=O)Oc1ccccc1C(=O)Nc1ncc([N+](=O)[O-])s1 [NITAZOXANIDE]
- MIC50 (Clostridium butyricum): 0.5 µg/mL (≈ 1.63 µM)
- MIC90 (Clostridium butyricum): 4 µg/mL (≈ 13 µM)
- MIC50 [1]: 2 µg/mL (≈ 6.51 µM)
- MIC90 [1]: 32 µg/mL (≈ 104 µM)
- MIC50 [2]: 2 µg/mL (≈ 6.51 µM)
- MIC90 [2]: 32 µg/mL (≈ 104 µM)
- MIC50 [3]: 0.5 µg/mL (≈ 1.63 µM)
- MIC90 [3]: 1 µg/mL (≈ 3.25 µM)
- MIC50 [4]: 0.5 µg/mL (≈ 1.63 µM)
- MIC90 [4]: 4 µg/mL (≈ 13 µM)
- MIC50 (Schaalia meyeri): 2 µg/mL (≈ 6.51 µM)
- MIC90 (Schaalia meyeri): 32 µg/mL (≈ 104 µM)
- MIC50 (Ruminococcus gnavus): 0.5 µg/mL (≈ 1.63 µM)
- MIC90 (Ruminococcus gnavus): 1 µg/mL (≈ 3.25 µM)
- MIC50 (Bifidobacterium dentium): 2 µg/mL (≈ 6.51 µM)
- MIC90 (Bifidobacterium dentium): 32 µg/mL (≈ 104 µM)
- MIC50 (Fusobacterium mortiferum): 0.5 µg/mL (≈ 1.63 µM)
- MIC90 (Fusobacterium mortiferum): 4 µg/mL (≈ 13 µM)
- MIC50 [5]: 0.5 µg/mL (≈ 1.63 µM)
- MIC90 [5]: 4 µg/mL (≈ 13 µM)
- MIC50 [6]: 2 µg/mL (≈ 6.51 µM)
- MIC90 [6]: 32 µg/mL (≈ 104 µM)
- MIC50 (Hoylesella loescheii): 4 µg/mL (≈ 13 µM)
- MIC90 (Hoylesella loescheii): 8 µg/mL (≈ 26 µM)
- MIC50 (Bifidobacterium breve): 2 µg/mL (≈ 6.51 µM)
- MIC90 (Bifidobacterium breve): 32 µg/mL (≈ 104 µM)
- MIC50 (Porphyromonas): 0.5 µg/mL (≈ 1.63 µM)
- MIC90 (Porphyromonas): 1 µg/mL (≈ 3.25 µM)
- MIC50 (Clostridium cadaveris): 0.5 µg/mL (≈ 1.63 µM)
- MIC90 (Clostridium cadaveris): 4 µg/mL (≈ 13 µM)
- MIC (Flavonifractor plautii): 0.25 µg/mL (≈ 0.814 µM)
- MIC50 (Flavonifractor plautii): 0.25 µg/mL (≈ 0.814 µM)
- MIC90 (Flavonifractor plautii): 0.5 µg/mL (≈ 1.63 µM)
- MIC50 (Parvimonas micra): 0.5 µg/mL (≈ 1.63 µM)
- MIC90 (Parvimonas micra): 1 µg/mL (≈ 3.25 µM)
- MIC50 (Bacteroides stercoris): 4 µg/mL (≈ 13 µM)
- MIC90 (Bacteroides stercoris): 4 µg/mL (≈ 13 µM)
- MIC50 (Ruminococcus obeum): 0.5 µg/mL (≈ 1.63 µM)
- MIC90 (Ruminococcus obeum): 1 µg/mL (≈ 3.25 µM)
- MIC50 (Clostridium disporicum): 0.5 µg/mL (≈ 1.63 µM)
- MIC90 (Clostridium disporicum): 4 µg/mL (≈ 13 µM)
- MIC (Fusobacterium nucleatum): 0.25 µg/mL (≈ 0.814 µM)
- MIC50 (Fusobacterium nucleatum): 0.25 µg/mL (≈ 0.814 µM)
- MIC90 (Fusobacterium nucleatum): 0.5 µg/mL (≈ 1.63 µM)
- MIC50 [7]: 4 µg/mL (≈ 13 µM)
- MIC90 [7]: 4 µg/mL (≈ 13 µM)
- MIC50 (Desulfovibrio vulgaris): 1 µg/mL (≈ 3.25 µM)
- MIC90 (Desulfovibrio vulgaris): 4 µg/mL (≈ 13 µM)
- MIC50 (Lactobacillus sp.): 2 µg/mL (≈ 6.51 µM)
- MIC90 (Lactobacillus sp.): 32 µg/mL (≈ 104 µM)
- MIC50 (Eubacterium cylindroides): 2 µg/mL (≈ 6.51 µM)
- MIC90 (Eubacterium cylindroides): 32 µg/mL (≈ 104 µM)
- MIC50 [8]: 4 µg/mL (≈ 13 µM)
- MIC90 [8]: 4 µg/mL (≈ 13 µM)
- MIC50 (Prevotella bivia): 4 µg/mL (≈ 13 µM)
- MIC90 (Prevotella bivia): 8 µg/mL (≈ 26 µM)
- MIC50 [9]: 2 µg/mL (≈ 6.51 µM)
- MIC90 [9]: 32 µg/mL (≈ 104 µM)
- MIC50 (Clostridium nexile): 0.5 µg/mL (≈ 1.63 µM)
- MIC90 (Clostridium nexile): 4 µg/mL (≈ 13 µM)
- MIC50 (Thomasclavelia ramosa): 0.5 µg/mL (≈ 1.63 µM)
- MIC90 (Thomasclavelia ramosa): 4 µg/mL (≈ 13 µM)
- MIC50 (Finegoldia magna): 0.5 µg/mL (≈ 1.63 µM)
- MIC90 (Finegoldia magna): 1 µg/mL (≈ 3.25 µM)
- MIC50 (Eubacterium limosum): 2 µg/mL (≈ 6.51 µM)
- MIC90 (Eubacterium limosum): 32 µg/mL (≈ 104 µM)
- MIC50 (Bacteroides fragilis): 4 µg/mL (≈ 13 µM)
- MIC90 (Bacteroides fragilis): 4 µg/mL (≈ 13 µM)
- MIC50 (Collinsella aerofaciens): 2 µg/mL (≈ 6.51 µM)
- MIC90 (Collinsella aerofaciens): 32 µg/mL (≈ 104 µM)
- MIC50 [10]: 0.5 µg/mL (≈ 1.63 µM)
- MIC90 [10]: 4 µg/mL (≈ 13 µM)
- MIC50 (Ruminococcus lactaris): 0.5 µg/mL (≈ 1.63 µM)
- MIC90 (Ruminococcus lactaris): 1 µg/mL (≈ 3.25 µM)
- MIC50 (Prevotella corporis): 4 µg/mL (≈ 13 µM)
- MIC90 (Prevotella corporis): 8 µg/mL (≈ 26 µM)
- MIC50 (Blautia luti): 0.5 µg/mL (≈ 1.63 µM)
- MIC90 (Blautia luti): 1 µg/mL (≈ 3.25 µM)
- MIC50 (Bacteroides uniformis): 4 µg/mL (≈ 13 µM)
- MIC90 (Bacteroides uniformis): 4 µg/mL (≈ 13 µM)
- MIC50 (Clostridium bartlettii): 0.5 µg/mL (≈ 1.63 µM)
- MIC90 (Clostridium bartlettii): 4 µg/mL (≈ 13 µM)
- MIC50 (Clostridium symbiosum): 0.5 µg/mL (≈ 1.63 µM)
- MIC90 (Clostridium symbiosum): 4 µg/mL (≈ 13 µM)
- MIC50 [11]: 2 µg/mL (≈ 6.51 µM)
- MIC90 [11]: 32 µg/mL (≈ 104 µM)
- MIC50 (Clostridium fallax): 0.5 µg/mL (≈ 1.63 µM)
- MIC90 (Clostridium fallax): 4 µg/mL (≈ 13 µM)
- MIC50 (Clostridium subterminale): 0.5 µg/mL (≈ 1.63 µM)
- MIC90 (Clostridium subterminale): 4 µg/mL (≈ 13 µM)
- MIC50 (Clostridium hathewayi): 0.5 µg/mL (≈ 1.63 µM)
- MIC90 (Clostridium hathewayi): 0.5 µg/mL (≈ 1.63 µM)
- MIC50 (Prevotella intermedia): 4 µg/mL (≈ 13 µM)
- MIC90 (Prevotella intermedia): 8 µg/mL (≈ 26 µM)
- MIC50 [12]: 1 µg/mL (≈ 3.25 µM)
- MIC90 [12]: 4 µg/mL (≈ 13 µM)
